Non-standard residues stand in square brackets, D forms with d. Residues, ends and D or L forms follow the SMILES beside them. *: point of attachment. DOTA = O=C(O)CN1CCN(CC(=O)O)CCN(CC(=O)*)CCN(CC(=O)O)CC1; 1Nal = N[C@@H](Cc1cccc2ccccc12)C(=O)O; NMeNle = CCCC[C@H](NC)C(=O)O

The data set can be described thus: Retention time of the compound by HPLC method. Format: physicochemical.

Consider `CCCC[C@@H](C(=O)N[C@@H](CC(=O)O)C(=O)N[C@@H](Cc1cccc2ccccc12)C(N)=O)N(C)C(=O)[C@H](Cc1c[nH]c2ccccc12)NC(=O)[C@@H]1CCCN1C(=O)[C@H](Cc1ccc(O)cc1)NC(=O)[C@H](C)NC(=O)[C@@H](CCC(=O)O)NC(=O)CN1CCN(CC(=O)O)CCN(CC(=O)O)CCN(CC(=O)O)CC1` ({DOTA}-[dE]AYPW[NMeNle]D[1Nal]-NH2), for which the Retention_time came to 16.8 min. `CCCC[C@@H](C(=O)N[C@@H](CC(=O)O)C(=O)N[C@@H](Cc1cccc2ccccc12)C(N)=O)N(C)C(=O)[C@H](Cc1c[nH]c2ccccc12)NC(=O)CNC(=O)[C@@H]1CCCN1C(=O)[C@H](Cc1ccc(O)cc1)NC(=O)[C@@H](CCC(=O)O)NC(=O)CN1CCN(CC(=O)O)CCN(CC(=O)O)CCN(CC(=O)O)CC1` ({DOTA}-[dE]YPGW[NMeNle]D[1Nal]-NH2): the Retention_time is 16.9 min. `CCCC[C@@H](C(=O)N[C@@H](CC(=O)O)C(=O)N[C@@H](Cc1cccc2ccccc12)C(N)=O)N(C)C(=O)[C@H](Cc1c[nH]c2ccccc12)NC(=O)CNC(=O)[C@H](Cc1ccc(O)cc1)NC(=O)[C@@H]1CCCN1C(=O)[C@@H](CCC(=O)O)NC(=O)CN1CCN(CC(=O)O)CCN(CC(=O)O)CCN(CC(=O)O)CC1` ({DOTA}-[dE]PYGW[NMeNle]D[1Nal]-NH2) registered a Retention_time of 16.9 min.
